# pIC50: −log10 of the molar value.
# Target: Cav3.2 (Homo sapiens, UniProt O95180)
# Experiment: Calcium flux FLIPR assay, HEK293 cells recombinantly expressing Cav3.2
# Type: cell-based
# Details: Cav3.2-channel, Ca2+ entry stimulated by 10 mM CaCl2
# How it was run: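 Fluo-4-loaded HEK293 cells stably expressing Cav3.2, seeded overnight at 37 °C; compounds diluted in TEAC buffer (pH 7.2) and preincubated 3 min before Ca2+ entry triggered with CaCl2 at 10 mM final. Area under FLIPR fluorescence trace fitted sigmoidally; IC50 relative to vehicle signal.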
# Cav3.2, sequence (O95180 whole entry, looked up): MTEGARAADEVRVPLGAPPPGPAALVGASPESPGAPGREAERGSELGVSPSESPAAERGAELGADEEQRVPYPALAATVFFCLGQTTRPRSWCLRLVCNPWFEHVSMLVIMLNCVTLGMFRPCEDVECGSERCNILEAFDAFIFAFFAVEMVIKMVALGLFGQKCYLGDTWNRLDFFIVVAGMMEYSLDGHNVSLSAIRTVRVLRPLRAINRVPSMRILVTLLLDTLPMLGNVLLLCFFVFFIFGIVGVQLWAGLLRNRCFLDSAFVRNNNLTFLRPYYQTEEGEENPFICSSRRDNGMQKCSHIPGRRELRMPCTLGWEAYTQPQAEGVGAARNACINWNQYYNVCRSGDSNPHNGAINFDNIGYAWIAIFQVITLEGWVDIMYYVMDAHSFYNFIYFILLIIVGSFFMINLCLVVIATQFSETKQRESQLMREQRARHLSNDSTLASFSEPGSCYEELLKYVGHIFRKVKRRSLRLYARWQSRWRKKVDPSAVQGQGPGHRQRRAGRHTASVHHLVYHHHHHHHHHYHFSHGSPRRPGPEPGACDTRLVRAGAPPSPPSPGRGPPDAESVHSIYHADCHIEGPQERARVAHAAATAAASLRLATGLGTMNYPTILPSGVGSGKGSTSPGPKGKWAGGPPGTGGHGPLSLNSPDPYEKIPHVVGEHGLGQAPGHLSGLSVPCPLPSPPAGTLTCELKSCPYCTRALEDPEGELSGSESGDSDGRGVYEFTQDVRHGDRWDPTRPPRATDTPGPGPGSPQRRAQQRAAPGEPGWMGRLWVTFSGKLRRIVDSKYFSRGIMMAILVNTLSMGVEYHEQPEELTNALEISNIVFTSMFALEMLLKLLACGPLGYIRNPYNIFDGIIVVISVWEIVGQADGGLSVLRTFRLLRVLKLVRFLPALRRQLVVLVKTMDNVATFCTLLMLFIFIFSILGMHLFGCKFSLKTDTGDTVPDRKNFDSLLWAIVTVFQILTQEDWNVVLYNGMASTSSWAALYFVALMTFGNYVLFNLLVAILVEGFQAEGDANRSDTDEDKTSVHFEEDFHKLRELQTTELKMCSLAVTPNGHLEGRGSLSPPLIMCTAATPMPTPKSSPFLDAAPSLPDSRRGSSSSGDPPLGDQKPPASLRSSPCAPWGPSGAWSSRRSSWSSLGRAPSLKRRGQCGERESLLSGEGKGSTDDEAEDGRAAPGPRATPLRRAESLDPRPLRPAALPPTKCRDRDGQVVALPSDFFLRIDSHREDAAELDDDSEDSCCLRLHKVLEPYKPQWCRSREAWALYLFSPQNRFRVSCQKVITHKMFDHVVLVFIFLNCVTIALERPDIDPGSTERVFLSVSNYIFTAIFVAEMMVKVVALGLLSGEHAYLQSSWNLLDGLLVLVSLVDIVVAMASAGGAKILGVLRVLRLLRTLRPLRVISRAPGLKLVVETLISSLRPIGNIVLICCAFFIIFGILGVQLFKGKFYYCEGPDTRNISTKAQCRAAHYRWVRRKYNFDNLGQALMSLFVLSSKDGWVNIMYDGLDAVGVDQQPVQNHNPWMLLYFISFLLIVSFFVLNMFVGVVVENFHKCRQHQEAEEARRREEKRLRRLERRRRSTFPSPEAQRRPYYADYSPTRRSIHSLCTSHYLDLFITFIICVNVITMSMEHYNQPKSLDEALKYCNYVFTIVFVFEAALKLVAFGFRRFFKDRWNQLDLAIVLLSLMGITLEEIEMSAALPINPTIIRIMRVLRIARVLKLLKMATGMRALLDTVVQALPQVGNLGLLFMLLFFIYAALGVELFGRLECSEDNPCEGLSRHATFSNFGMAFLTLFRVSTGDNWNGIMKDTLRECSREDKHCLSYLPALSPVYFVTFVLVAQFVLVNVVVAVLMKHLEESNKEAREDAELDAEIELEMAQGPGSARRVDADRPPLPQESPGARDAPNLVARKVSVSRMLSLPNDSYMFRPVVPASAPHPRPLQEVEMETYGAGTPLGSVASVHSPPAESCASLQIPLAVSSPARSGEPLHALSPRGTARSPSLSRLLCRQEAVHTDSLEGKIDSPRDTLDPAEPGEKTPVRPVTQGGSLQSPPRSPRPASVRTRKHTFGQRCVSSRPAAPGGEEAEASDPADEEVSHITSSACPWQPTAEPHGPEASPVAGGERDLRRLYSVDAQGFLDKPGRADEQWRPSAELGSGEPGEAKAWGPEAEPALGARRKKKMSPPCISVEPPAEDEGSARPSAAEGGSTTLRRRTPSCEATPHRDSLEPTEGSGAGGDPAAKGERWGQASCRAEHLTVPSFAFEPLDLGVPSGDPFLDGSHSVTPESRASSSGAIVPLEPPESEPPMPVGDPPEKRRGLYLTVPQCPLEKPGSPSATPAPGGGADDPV
row,SMILES,pIC50
1,"O=C(Cc1ccc(C2(C(F)(F)F)CC2)cc1)Nc1cnn(Cc2ccc(OC(F)F)c(F)c2)n1 [Example 181, N-[2-(4-Difluoromethoxy-3-fluoro-benzyl)-2H-[1,2,3]triazol-4-yl]-2-[4-(1-trifluoromethyl-cyclopropyl)-phenyl]-acetamide]",7.07
2,"COc1cc(Cn2ncc(NC(=O)Cc3ccc(OCC4(C)COC4)cc3)n2)ccc1F [Example 112, N-[2-(4-Fluoro-3-methoxy-benzyl)-2H-[1,2,3]triazol-4-yl]-2-[4-(3-methyl-oxetan-3-ylmethoxy)-phenyl]-acetamide]",6.72
3,"COc1c(F)cc(Cn2ncc(NC(=O)Cc3ccc(C4(C)COC4)cc3)n2)cc1F [Example 78, N-[2-(3,5-Difluoro-4-methoxy-benzyl)-2H-[1,2,3]triazol-4-yl]-2-[4-(3-methyl-oxetan-3-yl)-phenyl]-acetamide]",7.31
4,"N#Cc1ccc(Cn2ncc(NC(=O)Cc3cnc(N4CCCC4)c(F)c3)n2)nc1 [Example 247, N-[2-(5-Cyano-pyridin-2-ylmethyl)-2H-[1,2,3]triazol-4-yl]-2-(5-fluoro-6-pyrrolidin-1-yl-pyridin-3-yl)-acetamide]",6.16
5,"Cc1cc(Cn2ncc(NC(=O)Cc3ccc4c(c3)c(C)cn4C)n2)ccc1C#N [Example 171, N-[2-(4-Cyano-3-methyl-benzyl)-2H-[1,2,3]triazol-4-yl]-2-(1,3-dimethyl-1H-indol-5-yl)-acetamide]",7.66
6,"Cc1cc2cc(CC(=O)Nc3cnn(Cc4ccc(F)c(F)c4)n3)ccc2[nH]1 [Example 31, N-[2-(3,4-Difluoro-benzyl)-2H-[1,2,3]triazol-4-yl]-2-(2-methyl-1H-indol-5-yl)-acetamide]",7.96
7,"O=C(Cc1ccc(C2(C(F)(F)F)CC2)cc1)Nc1cnn(Cc2ccc(OC(F)(F)F)c(F)c2)n1 [Example 188, N-[2-(3-Fluoro-4-trifluoromethoxy-benzyl)-2H-[1,2,3]triazol-4-yl]-2-[4-(1-trifluoromethyl-cyclopropyl)-phenyl]-acetamide]",7.02
8,"CC(C)c1ccc(CC(=O)Nc2cnn(Cc3ccc(F)c(F)c3)n2)cc1 [Example 5, N-[2-(3,4-Difluoro-benzyl)-2H-[1,2,3]triazol-4-yl]-2-(4-isopropyl-phenyl)-acetamide]",7.52
9,"N#Cc1ccc(Cn2ncc(NC(=O)Cc3ccc(C(F)(F)F)cc3)n2)cc1F [Example 159, N-[2-(4-Cyano-3-fluoro-benzyl)-2H-[1,2,3]triazol-4-yl]-2-(4-trifluoromethyl-phenyl)-acetamide]",7.21
10,"CCOc1ccc(Cn2ncc(NC(=O)Cc3ccc4c(ccn4C)c3)n2)cc1 [Example 40, N-[2-(4-Ethoxy-benzyl)-2H-[1,2,3]triazol-4-yl]-2-(1-methyl-1H-indol-5-yl)-acetamide]",7.46
11,"O=C(Cc1ccc(N2CCC(F)(F)C2)nc1)Nc1cnn(Cc2ccc(OC(F)(F)F)c(F)c2)n1 [Example 189, 2-[6-(3,3-Difluoro-pyrrolidin-1-yl)-pyridin-3-yl]-N-[2-(3-fluoro-4-trifluoromethoxy-benzyl)-2H-[1,2,3]triazol-4-yl]-acetamide]",7.77
12,"Cn1ncc2ccc(CC(=O)Nc3cnn(Cc4ccc(OC(F)(F)F)c(F)c4)n3)cc21 [Example 185, N-[2-(3-Fluoro-4-trifluoromethoxy-benzyl)-2H-[1,2,3]triazol-4-yl]-2-(1-methyl-1H-indazol-6-yl)-acetamide]",7.77
13,"COc1cc(Cn2ncc(NC(=O)Cc3ccc(C4(C(F)(F)F)CC4)cc3)n2)cc(F)c1F [Example 227, N-[2-(3,4-Difluoro-5-methoxy-benzyl)-2H-[1,2,3]triazol-4-yl]-2-[4-(1-trifluoromethyl-cyclopropyl)-phenyl]-acetamide]",6.11
14,"COc1cc(Cn2ncc(NC(=O)Cc3ccc(C4(OC)COC4)cc3)n2)ccc1F [Example 110, N-[2-(4-Fluoro-3-methoxy-benzyl)-2H-[1,2,3]triazol-4-yl]-2-[4-(3-methoxy-oxetan-3-yl)-phenyl]-acetamide]",6.85
15,"Cc1ccc(Cn2ncc(NC(=O)Cc3ccc4c(ccn4C)c3)n2)cc1 [Example 64, N-[2-(4-Methyl-benzyl)-2H-[1,2,3]triazol-4-yl]-2-(1-methyl-1H-indol-5-yl)-acetamide]",7.52
16,"Cc1cc(Cn2ncc(NC(=O)Cc3ccc(C4(F)COC4)cc3)n2)ccc1C#N [Example 235, N-[2-(4-Cyano-3-methyl-benzyl)-2H-[1,2,3]triazol-4-yl]-2-[4-(3-fluoro-oxetan-3-yl)-phenyl]-acetamide]",7.04
17,"CCn1ncc2cc(CC(=O)Nc3cnn(Cc4ccc(F)c(F)c4)n3)ccc21 [Example 27, N-[2-(3,4-Difluoro-benzyl)-2H-[1,2,3]triazol-4-yl]-2-(1-ethyl-1H-indazol-5-yl)-acetamide]",8.01
18,"Cn1ccc2cc(CC(=O)Nc3cnn(Cc4ccc(OC(F)F)cc4)n3)ccc21 [Example 89, N-[2-(4-Difluoromethoxy-benzyl)-2H-[1,2,3]triazol-4-yl]-2-(1-methyl-1H-indol-5-yl)-acetamide]",7.70

row,SMILES,pIC50
1,"COc1cc(Cn2ncc(NC(=O)Cc3ccc(N4CCCC4)nc3)n2)ccc1F [Example 155, N-[2-(4-Fluoro-3-methoxy-benzyl)-2H-[1,2,3]triazol-4-yl]-2-(6-pyrrolidin-1-yl-pyridin-3-yl)-acetamide]",6.85
2,"O=C(Cc1ccc2[nH]nc(C(F)(F)F)c2c1)Nc1cnn(Cc2ccc(F)c(F)c2)n1 [Example 39, N-[2-(3,4-Difluoro-benzyl)-2H-[1,2,3]triazol-4-yl]-2-(3-trifluoromethyl-1H-indazol-5-yl)-acetamide]",6.55
3,"O=C(Cc1ccc2cc[nH]c2c1)Nc1cnn(Cc2ccc(F)c(F)c2)n1 [Example 8, N-[2-(3,4-Difluoro-benzyl)-2H-[1,2,3]triazol-4-yl]-2-(1H-indol-6-yl)-acetamide]",7.43
4,"N#Cc1ccc(Cn2ncc(NC(=O)Cc3ccc(C4(C(F)(F)F)CC4)cc3)n2)nc1 [Example 245, N-[2-(5-Cyano-pyridin-2-ylmethyl)-2H-[1,2,3]triazol-4-yl]-2-[4-(1-trifluoromethyl-cyclopropyl)-phenyl]-acetamide]",6.72
5,"Cc1ccc(Cn2ncc(NC(=O)Cc3ccc(OC4CC(F)(F)C4)cc3)n2)cc1C#N [Example 209, N-[2-(3-Cyano-4-methyl-benzyl)-2H-[1,2,3]triazol-4-yl]-2-[4-(3,3-difluoro-cyclobutoxy)-phenyl]-acetamide]",6.74
6,"O=C(Cc1ccc(C2(F)COC2)cc1)Nc1cnn(Cc2ccc(F)c(F)c2)n1 [Example 14, N-[2-(3,4-Difluoro-benzyl)-2H-[1,2,3]triazol-4-yl]-2-[4-(3-fluoro-oxetan-3-yl)-phenyl]-acetamide]",7.77
7,"COc1cc(Cn2ncc(NC(=O)Cc3ccc(C(C)C)cc3)n2)cc(F)c1F [Example 222, N-[2-(3,4-Difluoro-5-methoxy-benzyl)-2H-[1,2,3]triazol-4-yl]-2-(4-isopropyl-phenyl)-acetamide]",6.52
8,"COc1cc(Cn2ncc(NC(=O)Cc3ccc4c(cnn4C)c3)n2)cc(F)c1F [Example 212, N-[2-(3,4-Difluoro-5-methoxy-benzyl)-2H-[1,2,3]triazol-4-yl]-2-(1-methyl-1H-indazol-5-yl)-acetamide]",6.64
9,"COc1c(F)cc(Cn2ncc(NC(=O)Cc3ccc(C4(F)COC4)cc3)n2)cc1F [Example 148, N-[2-(3,5-Difluoro-4-methoxy-benzyl)-2H-[1,2,3]triazol-4-yl]-2-[4-(3-fluoro-oxetan-3-yl)-phenyl]-acetamide]",7.46
10,"CN1C(=O)C(C)(C)c2cc(CC(=O)Nc3cnn(Cc4ccc(F)c(F)c4)n3)ccc21 [Example 19, N-[2-(3,4-Difluoro-benzyl)-2H-[1,2,3]triazol-4-yl]-2-(1,3,3-trimethyl-2-oxo-2,3-dihydro-1H-indol-5-yl)-acetamide]",8.01
11,"N#Cc1ccc(Cn2ncc(NC(=O)Cc3ccc(S(F)(F)(F)(F)F)cc3)n2)cc1F [Example 232, N-(2-(4-cyano-3-fluorobenzyl)-2H-1,2,3-triazol-4-yl)-2-(4-(pentafluoro-λ6-sulfanyl)phenyl)acetamide]",6.96
12,"COc1ccc(Cn2ncc(NC(=O)Cc3ccc4c(cnn4C)c3)n2)cc1F [Example 152, N-[2-(3-Fluoro-4-methoxy-benzyl)-2H-[1,2,3]triazol-4-yl]-2-(1-methyl-1H-indazol-5-yl)-acetamide]",7.04
13,"COc1ccc(Cn2ncc(NC(=O)Cc3ccc(C4(F)COC4)cc3)n2)cc1C#N [Example 214, N-[2-(3-Cyano-4-methoxy-benzyl)-2H-[1,2,3]triazol-4-yl]-2-[4-(3-fluoro-oxetan-3-yl)-phenyl]-acetamide]",6.60
14,"N#Cc1ccc(Cn2ncc(NC(=O)Cc3cnc(N4CCCC4)c(F)c3)n2)cc1F [Example 161, N-[2-(4-Cyano-3-fluoro-benzyl)-2H-[1,2,3]triazol-4-yl]-2-(5-fluoro-6-pyrrolidin-1-yl-pyridin-3-yl)-acetamide]",7.60
15,"COc1c(F)cc(Cn2ncc(NC(=O)Cc3ccc(C4(OC)COC4)cc3)n2)cc1F [Example 143, N-[2-(3,5-Difluoro-4-methoxy-benzyl)-2H-[1,2,3]triazol-4-yl]-2-[4-(3-methoxy-oxetan-3-yl)-phenyl]-acetamide]",7.12
16,"Cc1cc(Cn2ncc(NC(=O)Cc3ccc(C(C)(C)C)cc3)n2)ccc1C#N [Example 162, 2-(4-tert-Butyl-phenyl)-N-[2-(4-cyano-3-methyl-benzyl)-2H-[1,2,3]triazol-4-yl]-acetamide]",7.44
17,"COCCOc1ccc(Cn2ncc(NC(=O)Cc3ccc(C(C)(C)C)cc3)n2)cc1 [Example 86, 2-(4-tert-Butyl-phenyl)-N-{2-[4-(2-methoxy-ethoxy)-benzyl]-2H-[1,2,3]triazol-4-yl}-acetamide]",6.89
18,"COc1c(F)cc(Cn2ncc(NC(=O)Cc3ccc(C(C)C)cc3)n2)cc1F [Example 80, N-[2-(3,5-Difluoro-4-methoxy-benzyl)-2H-[1,2,3]triazol-4-yl]-2-(4-isopropyl-phenyl)-acetamide]",7.54

# From patent US10246426B2, “Triazole compounds as T-type calcium channel blockers” (IDORSIA PHARMACEUTICALS LTD, priority 2014, dated 2019)
